Measured values from ChEMBL document CHEMBL3885881, “DrugMatrix”.

Species: Rattus norvegicus
Test: DrugMatrix - Regimen: Daily Repeat
Format: toxicity, organism-based, Sprague-Dawley
Set-up: regimen Daily Repeat, gender Male, age 6-8 weeks
Conditions: in vivo, po, route oral GAVAGE, […]; for ABSOLUTE BASOPHIL / ABSOLUTE EOSINOPHIL / ABSOLUTE LYMPHOCYTE / ABSOLUTE MONOCYTE / ABSOLUTE SEGMENTED NEUTROPHIL / BASOPHIL / EOSINOPHIL / ERYTHROCYTE COUNT / HEMATOCRIT / HEMOGLOBIN / LEUKOCYTE COUNT / LYMPHOCYTE / MEAN CORPUSCULAR HEMOGLOBIN / MEAN CORPUSCULAR HEMOGLOBIN CONCENTRATION / MEAN CORPUSCULAR VOLUME / MONOCYTE / NEUTROPHIL / NUCLEATED RED BLOOD CELLS / PLATELET COUNT: tissue Blood; for ALANINE AMINOTRANSFERASE / ALBUMIN / ALKALINE PHOSPHATASE / ASPARTATE AMINOTRANSFERASE / BLOOD UREA NITROGEN / CARBON DIOXIDE / CHLORIDE / CHOLESTEROL / CREATINE PHOSPHOKINASE / CREATININE / GLUCOSE / LACTATE DEHYDROGENASE / LIPASE / PHOSPHORUS / POTASSIUM / SODIUM / TOTAL BILIRUBIN / TOTAL PROTEIN / URIC ACID: tissue Plasma
[1] = 0 mg/kg, 72 h, dose level Control, time 3 day
[2] = 0 mg/kg, 120 h, dose level Control, time 5 day
[3] = 30 mg/kg, 72 h, dose level Low, time 3 day

CCCCC(=O)N(Cc1ccc(-c2ccccc2-c2nnn[nH]2)cc1)[C@H](C(=O)O)C(C)C
ABSOLUTE BASOPHIL [1]: 0 CELLS/uL | ABSOLUTE EOSINOPHIL [1]: 13.67 CELLS/uL | ABSOLUTE LYMPHOCYTE [1]: 10069.5 CELLS/uL | ABSOLUTE MONOCYTE [1]: 50 CELLS/uL | ABSOLUTE SEGMENTED NEUTROPHIL [1]: 516.83 CELLS/uL | BASOPHIL [1]: 0% | EOSINOPHIL [1]: 0.17% | ERYTHROCYTE COUNT [1]: 5.44 x10E6/uL | HEMATOCRIT [1]: 33.88% | HEMOGLOBIN [1]: 13.23 G/DL | LEUKOCYTE COUNT [1]: 10.65 x10E3/uL | LYMPHOCYTE [1]: 94.67% | MEAN CORPUSCULAR HEMOGLOBIN [1]: 24.37 pg | MEAN CORPUSCULAR HEMOGLOBIN CONCENTRATION [1]: 39.05 G/DL | MEAN CORPUSCULAR VOLUME [1]: 62.38 fL | MONOCYTE [1]: 0.67% | NEUTROPHIL [1]: 4.5% | NUCLEATED RED BLOOD CELLS [1]: 0.33 /100WBC | PLATELET COUNT [1]: 414.5 x10E3/uL | ALANINE AMINOTRANSFERASE [1]: 72 u/L | ALBUMIN [1]: 3.75 G/DL | ALKALINE PHOSPHATASE [1]: 375 u/L | ASPARTATE AMINOTRANSFERASE [1]: 87.5 u/L | BLOOD UREA NITROGEN [1]: 14 mg/dL | CARBON DIOXIDE [1]: 27.5 mmol/L | CHLORIDE [1]: 95.83 MEQ/L | CHOLESTEROL [1]: 68.5 mg/dL | CREATINE PHOSPHOKINASE [1]: 284.33 u/L | CREATININE [1]: 0.16 mg/dL | GLUCOSE [1]: 156.67 mg/dL | LACTATE DEHYDROGENASE [1]: 101.83 u/L | LIPASE [1]: 9.67 u/L | PHOSPHORUS [1]: 10.33 mg/dL | POTASSIUM [1]: 5.22 MEQ/L | SODIUM [1]: 137.67 MEQ/L | TOTAL BILIRUBIN [1]: 0.13 mg/dL | TOTAL PROTEIN [1]: 5.43 G/DL | URIC ACID [1]: 0.8 mg/dL | ABSOLUTE BASOPHIL [2]: 0 CELLS/uL | ABSOLUTE EOSINOPHIL [2]: 20.67 CELLS/uL | ABSOLUTE LYMPHOCYTE [2]: 11518.33 CELLS/uL | ABSOLUTE MONOCYTE [2]: 47 CELLS/uL | ABSOLUTE SEGMENTED NEUTROPHIL [2]: 614 CELLS/uL | BASOPHIL [2]: 0% | EOSINOPHIL [2]: 0.17% | ERYTHROCYTE COUNT [2]: 5.61 x10E6/uL | HEMATOCRIT [2]: 34.25% | HEMOGLOBIN [2]: 13.38 G/DL | LEUKOCYTE COUNT [2]: 12.2 x10E3/uL | LYMPHOCYTE [2]: 94.33% | MEAN CORPUSCULAR HEMOGLOBIN [2]: 23.83 pg | MEAN CORPUSCULAR HEMOGLOBIN CONCENTRATION [2]: 39.08 G/DL | MEAN CORPUSCULAR VOLUME [2]: 61.03 fL | MONOCYTE [2]: 0.33% | NEUTROPHIL [2]: 5.17% | NUCLEATED RED BLOOD CELLS [2]: 0 /100WBC | PLATELET COUNT [2]: 941.83 x10E3/uL | ALANINE AMINOTRANSFERASE [2]: 68.83 u/L | ALBUMIN [2]: 4.12 G/DL | ALKALINE PHOSPHATASE [2]: 492.67 u/L | ASPARTATE AMINOTRANSFERASE [2]: 83.33 u/L | BLOOD UREA NITROGEN [2]: 14 mg/dL | CARBON DIOXIDE [2]: 37 mmol/L | CHLORIDE [2]: 98.67 MEQ/L | CHOLESTEROL [2]: 56.5 mg/dL | CREATINE PHOSPHOKINASE [2]: 167.33 u/L | CREATININE [2]: 0.17 mg/dL | GLUCOSE [2]: 157.5 mg/dL | LACTATE DEHYDROGENASE [2]: 104.83 u/L | LIPASE [2]: 10 u/L | PHOSPHORUS [2]: 10.43 mg/dL | POTASSIUM [2]: 5.46 MEQ/L | SODIUM [2]: 143.87 MEQ/L | TOTAL BILIRUBIN [2]: 0.17 mg/dL | TOTAL PROTEIN [2]: 5.72 G/DL | URIC ACID [2]: 0.85 mg/dL | ABSOLUTE BASOPHIL [3]: 0 CELLS/uL | ABSOLUTE EOSINOPHIL [3]: 32 CELLS/uL | ABSOLUTE LYMPHOCYTE [3]: 7448.67 CELLS/uL | ABSOLUTE MONOCYTE [3]: 0 CELLS/uL | ABSOLUTE SEGMENTED NEUTROPHIL [3]: 586 CELLS/uL | BASOPHIL [3]: 0% | EOSINOPHIL [3]: 0.33% | ERYTHROCYTE COUNT [3]: 5.55 x10E6/uL | HEMATOCRIT [3]: 33.7% | HEMOGLOBIN [3]: 13.27 G/DL | LEUKOCYTE COUNT [3]: 8.07 x10E3/uL | LYMPHOCYTE [3]: 92.33% | MEAN CORPUSCULAR HEMOGLOBIN [3]: 23.9 pg | MEAN CORPUSCULAR HEMOGLOBIN CONCENTRATION [3]: 39.33 G/DL | MEAN CORPUSCULAR VOLUME [3]: 60.7 fL | MONOCYTE [3]: 0% | NEUTROPHIL [3]: 7.33% | NUCLEATED RED BLOOD CELLS [3]: 0.67 /100WBC | PLATELET COUNT [3]: 891 x10E3/uL | ALANINE AMINOTRANSFERASE [3]: 67.67 u/L | ALBUMIN [3]: 3.93 G/DL | ALKALINE PHOSPHATASE [3]: 446.33 u/L | ASPARTATE AMINOTRANSFERASE [3]: 94.33 u/L | BLOOD UREA NITROGEN [3]: 14.33 mg/dL | CARBON DIOXIDE [3]: 25 mmol/L | CHLORIDE [3]: 95.5 MEQ/L | CHOLESTEROL [3]: 77.67 mg/dL | CREATINE PHOSPHOKINASE [3]: 130 u/L | CREATININE [3]: 0.19 mg/dL | GLUCOSE [3]: 147 mg/dL | LACTATE DEHYDROGENASE [3]: 98 u/L | LIPASE [3]: 11.33 u/L | PHOSPHORUS [3]: 9.5 mg/dL | POTASSIUM [3]: 5.71 MEQ/L | SODIUM [3]: 138.1 MEQ/L | TOTAL BILIRUBIN [3]: 0.1 mg/dL | TOTAL PROTEIN [3]: 5.53 G/DL | URIC ACID [3]: 0.57 mg/dL
